The target in one assay is T1, rhJAK3 (Homo sapiens, UniProt P52333).
T1 construct: recombinant purified GST-tagged catalytic domain for each enzyme; purchased Invitrogen PV3855
T1 sequence (P52333 822-1111 limits assumed): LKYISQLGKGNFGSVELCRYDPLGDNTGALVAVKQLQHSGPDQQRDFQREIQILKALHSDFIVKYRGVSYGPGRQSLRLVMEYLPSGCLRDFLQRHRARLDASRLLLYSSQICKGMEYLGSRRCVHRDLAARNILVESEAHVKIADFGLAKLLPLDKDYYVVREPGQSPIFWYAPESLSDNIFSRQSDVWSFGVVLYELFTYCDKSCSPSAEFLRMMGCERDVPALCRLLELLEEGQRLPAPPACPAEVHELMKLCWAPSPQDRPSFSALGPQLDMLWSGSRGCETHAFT
The experiment in a line: JAK Biochemical HTRF Assay (JAK3). The conditions noted are these: recombinant purified GST-tagged catalytic domain, HTRF format, [ATP] 1.7 μM; read-out: JAK3 IC50. The protocol: JAK Biochemical HTRF Assay Protocol
The ability of compounds to inhibit the activity of JAK1, JAK2, JAK3, and TYK2 was measured using a recombinant purified GST-tagged catalytic domain for each enzyme (Invitrogen JAK1 #PV4774, JAK2 #PV4210, JAK3 #PV3855, TYK2 #PV4790) in an HTRF format biochemical assay. The reactions employed a common peptide substrate, LCB-EQEDEPEGDYFEWLW-NH2. The basic assay protocol is as follows: First, […] of diluted compounds in DMSO were dispensed into the wells of a dry 384-well Black plate (Greiner #781076) using a Labcyte Echo 555 acoustic dispenser. Subsequent reagent additions employed a Thermo Multidrop Combi nL. Next, 10 μL of 2× enzyme and 2× substrate in 1× assay buffer (Invitrogen kinase buffer #PV3189, 2 mM DTT, 0.05% BSA) were added to the wells and preincubated for 30 min at room temperature to allow compound binding to equilibrate. After equilibration, 10 μl, of 2×ATP in 1× assay buffer was added to initiate the kinase reaction and the plates were incubated at room temperature for 120 min. At the end of the incubation, 20 μL of 2× stop buffer containing streptavidin-Dylight (Thermo #21845) and Eu-tagged pY20 antibody (Perkin Elmer #AD0067) was added to quench the reaction. Plates were further incubated 60 min at room temperature with shaking and then read on a Perkin Elmer Envision (λex=337 nm, λem=665 and 615 nm, TRF delay time=20 μs). HTRF signal=10,000*665 nm reading/615 nm reading. After normalization to untreated controls, the percent inhibition of the HTRF signal at each compound concentration was calculated. The plot of percent inhibition vs. the log of compound concentration was fit with a 4-parameter dose response equation to calculate IC50 values.
A general note: TR-FRET usually uses a lanthanide donor and a delayed reading to cut background.
For the compound `C[C@@H](Nc1cncc(-c2c[nH]c3ncc(-c4cnc(N)nc4)cc23)n1)C(=O)NCC(F)(F)F` [Example 15-6, N^2-{6-[5-(2-aminopyrimidin-5-yl)-1H-pyrrolo[2,3-b]pyridin-3-yl]pyrazin-2-yl}-N-(2,2,2-trifluoroethyl)-D-alaninamide], the half-inhibitory concentration (IC50) is no more than 1 nM.
Same read-out and setting: next, `C[C@@H](Nc1cncc(-c2c[nH]c3ncc(-c4cnn5c4CCC5)cc23)n1)C(=O)NCC(F)(F)F` [Example 15-9, N^2-{6-[5-(5,6-dihydro-4H-pyrrolo[1,2-b]pyrazol-3-yl)-1H-pyrrolo[2,3-b]-pyridin-3-yl]pyrazin-2-yl}-N-(2,2,2-trifluoroethyl)-D-alaninamide]: no more than 1 nM.
On the same count and under the same terms, next, `C[C@@H](Nc1cncc(-c2c[nH]c3ncc(-c4cccnc4F)cc23)n1)C(=O)NCC(F)(F)F` [Example 15-20, N^2-{6-[5-(2-fluoropyridin-3-yl)-1H-pyrrolo[2,3-b]pyridin-3-yl)pyrazin-2-yl}-N-(2,2,2-trifluoroethyl)-D-alaninamide]: no more than 1 nM; `C[C@@H](Nc1cncc(-c2c[nH]c3ncc(-c4cccc(N5CCOCC5)c4)cc23)n1)C(=O)NCC(F)(F)F` [Example 15-10, N^2-{6-[5-(3-morpholin-4-ylphenyl)-1H-pyrrolo[2,3-b]pyridin-3-yl]pyrazin-2-yl}-N-(2,2,2-trifluoroethyl)-D-alaninamide]: no more than 1 nM.
On the same count and under the same terms, next, `C[C@@H](Nc1cncc(-c2c[nH]c3ncc(-c4ccccc4CN(C)C)cc23)n1)C(=O)NCC(F)(F)F` [Example 15-13, N^2-[6-(5-{2-[(dimethylamino)methyl]-phenyl}-1H-pyrrolo(2,3-b]pyridin-3-yl)pyrazin-2-yl]-N-(2,2,2-trifluoroethyl)-D-alaninamide]: 1 to 10 nM.

Still in this assay, the particulars now being: recombinant purified GST-tagged catalytic domain, HTRF format, [ATP] 1.7 μM; read-out: rhJAK3 IC50.
Turning to `C[C@H](Nc1cncc(-c2c[nH]c3ncc(Cl)cc23)n1)C(=O)N1CC(F)(F)C(F)(F)C1` [Example 2-4, 6-(5-chloro-1H-pyrrolo[2,3-b]-pyridin-3-yl)-N-[(1S)-1-methyl-2-oxo-2-(3,3,4,4-tetrafluoro-pyrrolidin-1-yl)ethyl]pyrazin-2-amine], the IC50 fell in the range of 100 to 1000 nM.
Still for that read-out and setting: next, `C[C@@H](Nc1cncc(-c2c[nH]c3ncc(-c4cnn(C)c4)cc23)n1)C(=O)NCC(F)(F)F` [Example 14, N^2-{6-[5-(1-methyl-1H-pyrazol-4-yl)-1H-pyrrolo[2,3-b]pyridin-3-yl]pyrazin-2-yl}-N-(2,2,2-trifluoroethyl)-D-alaninamide]: no more than 1 nM; `C[C@@H](Nc1cncc(-c2c[nH]c3ncc(Cl)cc23)n1)C(=O)NCc1ccc(N)cc1` [Example 2-14, N-(4-aminobenzyl)-N^2-[6-(5-chloro-1H-pyrrolo[2,3-b]pyridin-3-yl)pyrazin-2-yl]-D-alaninamide]: 100 to 1000 nM; `CC(C)CNC(=O)[C@H](C)Nc1cncc(-c2c[nH]c3ncc(Cl)cc23)n1` [Example 2-23, N^2-[6-(5-chloro-1H-pyrrolo[2,3-b]-pyridin-3-yl)pyrazin-2-yl]-N-(2-methylpropyl)-L-alaninamide]: 10 to 100 nM.
Same read-out and setting: next, `C[C@]1(C(=O)NCC(F)(F)F)CCN1c1cncc(-c2c[nH]c3ncc(Cl)cc23)n1` [Example 1-11, (2R)-1-[6-(5-chloro-1H-pyrrolo[2,3-b]pyridin-3-yl)pyrazin-2-yl]-2-methyl-N-(2,2,2-trifluoroethyl)azetidine-2-carboxamide]: no more than 1 nM; `N#CCCNC(=O)Cc1cncc(-c2c[nH]c3ncc(Cl)cc23)n1` [Example 8-2, 2-[6-(5-chloro-1H-pyrrolo[2,3-b]-pyridin-3-yl)pyrazin-2-yl]-N-(2-cyanoethyl) acetamide]: 100 to 1000 nM; `O=C(CCc1cncc(-c2c[nH]c3ncc(Cl)cc23)n1)NCC(F)(F)F` [Example 12, 3-[6-(5-chloro-1H-pyrrolo[2,3-b]pyridin-3-yl)pyrazin-2-yl]-N-(2,2,2-trifluoroethyl)propanamide]: 10 to 100 nM.
With `O=C(NCCC(F)(F)F)C1(Oc2cncc(-c3c[nH]c4ncc(Cl)cc34)n2)CC1` [Example 6-3, 1-{[6-(5-chloro-1H-pyrrolo[2,3-b]pyridin-3-yl)pyrazin-2-yl]oxy}-N-(3,3,3-trifluoro-propyl)cyclopropanecarboxamide], the IC50 was 100 to 1000 nM.
Consider `CC(C)(C)C(=O)N1CCN(c2cncc(-c3c[nH]c4ncc(Cl)cc34)n2)[C@@H](C(=O)NCC(F)(F)F)C1` [Example 4-3, (2R)-1-[6-(5-chloro-1H-pyrrolo[2,3-b]-pyridin-3-yl)pyrazin-2-yl]-4-(2,2-dimethylpropanoyl)-N-(2,2,2-trifluoro-ethyl)piperazine-2-carboxamide], for which the IC50 lay within 10 to 100 nM.
Still for that read-out and setting: next, `O=C(NCC(F)(F)F)[C@H]1CCCN1c1cncc(-c2c[nH]c3ncc(Cl)cc23)n1` [Example 1-6, 1-[6-(5-chloro-1H-pyrrolo[2,3-b]pyridin-3-yl)pyrazin-2-yl]-N-(2,2,2-trifluoroethyl)-D-prolinamide]: no more than 1 nM.
Consider `C[C@@H](Nc1cncc(-c2c[nH]c3ncc(Cl)cc23)n1)C(=O)N[C@H](CO)Cc1ccc(O)cc1` [Example 2-18, N^2-[6-(5-chloro-1H-pyrrolo[2,3-b]-pyridin-3-yl)pyrazin-2-yl]-N-[(1S)-2-hydroxy-1-(4-hydroxybenzyl)-ethyl]-D-alaninamide], for which the concentration for half-maximal inhibition (IC50) lay in the range of 100 to 1000 nM.
Still for that read-out and setting: next, `COC(=O)c1ncc(N[C@@H](C)C(=O)NCC(F)(F)F)nc1-c1c[nH]c2ncc(Cl)cc12` [Example 1-16, methyl 3-(5-chloro-1H-pyrrolo[2,3-b]pyridin-3-yl)-5-({(1S)-1-methyl-2-oxo-2-[(2,2,2-trifluoroethyl)amino]ethyl}amino)-pyrazine-2-carboxylate]: 10 to 100 nM; `O=C(Cc1cncc(-c2c[nH]c3ncc(Cl)cc23)n1)N1CCOCC1` [Example 8-1, 5-chloro-3-[6-(2-morpholin-4-yl-2-oxoethyl)pyrazin-2-yl]-1H-pyrrolo-[2,3-b]pyridine]: 100 to 1000 nM.
With `O=C(NCC(F)(F)F)[C@@H]1CCCN1c1cncc(-c2c[nH]c3ncc(Cl)cc23)n1` [Example 1-5, 1-[6-(5-chloro-1H-pyrrolo[2,3-b]pyridin-3-yl)-pyrazin-2-yl]-N-(2,2,2-trifluoroethyl)-L-prolinamide], the IC50 was 1 to 10 nM.
Still for that read-out and setting: next, `O=C(Cc1cncc(-c2c[nH]c3ncc(Cl)cc23)n1)NCCC(F)(F)F` [Example 8-3, 2-[6-(5-chloro-1H-pyrrolo[2,3-b]-pyridin-3-yl)pyrazin-2-yl]-N-(3,3,3-trifluoropropyl) acetamide]: 10 to 100 nM; `C[C@@H](Nc1cncc(-c2c[nH]c3ncc(Cl)cc23)n1)C(=O)N1CCC(F)(F)CC1` [Example 2-12, 6-(5-chloro-1H-pyrrolo[2,3-b]-pyridin-3-yl)-N-[(1R)-2-(4,4-difluoropiperidin-1-yl)-1-methyl-2-oxoethyl]pyrazin-2-amine]: 100 to 1000 nM; `CC(C)[C@@H](Nc1cncc(-c2c[nH]c3ncc(Cl)cc23)n1)C(=O)NCC(F)(F)F` [Example 1-12, N^2-[6-(5-chloro-1H-pyrrolo[2,3-b]pyridin-3-yl)pyrazin-2-yl]-N-(2,2,2-trifluoroethyl)-D-valinamide]: no more than 1 nM.
Regarding `O=C(NCC(F)(F)F)[C@H]1CNCCN1C(=O)c1cncc(-c2c[nH]c3ncc(Cl)cc23)n1` [Example 7-1, (2R)-1-{[6-(5-chloro-1H-pyrrolo[2,3-b]pyridin-3-yl)-pyrazin-2-yl]carbonyl}-N-(2,2,2-trifluoroethyl)piperazine-2-carboxamide], the concentration for half-maximal inhibition (IC50) fell in the range of 100 to 1000 nM.
As to `C[C@@H](Nc1cncc(-c2c[nH]c3ncc(Cl)cc23)n1)C(=O)NCC(F)(F)F` [Example 1, N^2-[6-(5-Chloro-1H-pyrrolo[2,3-b]pyridin-3-yl)pyrazin-2-yl]-N-(2,2,2-trifluoroethyl)-D-alaninamide], the IC50 was no more than 1 nM.
With `N#CCNC(=O)Cc1cncc(-c2c[nH]c3ncc(Cl)cc23)n1` [Example 8-4, 2-[6-(5-chloro-1H-pyrrolo[2,3-b]-pyridin-3-yl)pyrazin-2-yl]-N-(cyanomethyl)acetamide], the IC50 was in the range of 10 to 100 nM.
The same measure, in the same setting: next, `O=C(NCCC(F)(F)F)C1(Nc2cncc(-c3c[nH]c4ncc(Cl)cc34)n2)CCCC1` [Example 2-26, 1-{[6-(5-chloro-1H-pyrrolo[2,3-b]pyridin-3-yl)pyrazin-2-yl]amino}-N-(3,3,3-trifluoropropyl)cyclopentanecarboxamide]: 100 to 1000 nM; `CC(C)[C@@H](Nc1cncc(-c2c[nH]c3ncc(C(N)=O)cc23)n1)C(=O)NCC(F)(F)F` [16 Step 8]: no more than 1 nM; `O=C(NCC(F)(F)F)C1(Oc2cncc(-c3c[nH]c4ncc(Cl)cc34)n2)CC1` [Example 6, 1-{[6-(5-Chloro-1H-pyrrolo[2,3-b]pyridin-3-yl)pyrazin-2-yl]oxy}-N-(2,2,2-trifluoroethyl)-cyclopropanecarboxamide]: 1 to 10 nM.

As a reminder, the IC50 is the concentration that inhibits the measured activity by half.

Source of the values: patent publication US20130040933A1, “AZAINDOLES AS JANUS KINASE INHIBITORS” (priority 2010, published 2013).
